Measurements as given in patent US7262173B2, “Chemosensitizing with liposomes containing oligonucleotides” (Georgetown University, priority 1997, dated 2007).

What was measured:
[1] = system: Raf-1; experiment: Raf-1 expression in SQ-20B tumor xenografts after i.v. or intratumoral ODN; format: in vivo, human; details: intravenous treatment; compared with untreated controls
Protocol: FIG. 7: Effects of intravenous administration of LE-ATG-AS raf ODN (SEQ ID NO:1) our Raf-1 expression in normal and tumor tissues. Raf-1 expression was examined in liver, kidneys and SQ-20B tumor xenograft of Balb/c nu/nu mice after i.v. injections of 6 mg/kg daily dose of LE-ATG-AS raf ODN (SEQ ID NO:1) (AS) or LE-ATG-S raf ODN (SEQ ID NO:3) (S) for five consecutive days. Control mice (C) received normal saline. Representative data showing Raf-1 expression in lysates normalized for protein content by immunoprecipitation and immunoblotting (top). Quantification data are shown as mean±s.d. from three mice (bottom).
FIG. 8: Inhibition of Raf-1 protein expression in SQ-20B tumor xenografts by intratumoral administration of LE-ATG-AS raf ODN (SEQ ID NO:1): Each animal received intratumoral injections of LE-ATG-AS raf ODN (SEQ ID NO:1) (AS) on the right flank and LE-ATG-S raf ODN (SEQ ID NO:3) (S) on the left flank at a dose of 4 mg/kg daily for seven days as explained in the experimental procedures. […] Quantification data shown are mean±s.d., from three representative mice. […]
For in vivo expression studies, tumor tissue and organs were homogenized in the cell lysis buffer using Polytron homogenizer (Westbury, N.Y., USA). Raf-1 expression was analyzed in tissue homogenates by immunoprecipitation and immunoblotting as described above.

[2] = system: Raf-1; experiment: Raf-1 immunoprecipitation and immunoblotting in SQ-20B cells (5132, LE-5132, LE-10353); format: cell-based, human
Protocol: FIG. 9: Antisense sequence-specific inhibition of Raf-1 expression in SQ-20B cells. (A) Logarithmically growing SQ-20B cells were treated with indicated ODN concentrations of LE-5132 (SEQ ID NO:4) (lanes 3, 5 and 10), 5132 (SEQ ID NO:4) (lanes 4 and 6), or LE-10353 (SEQ ID NO:5) (lane 9) as described in Materials and Methods. Control cells were either left untreated (lanes 1 and 7) or treated with 1 uM blank liposomes (BL) (lanes 2 and 8). Whole cell lysates were normalized for total protein content and immunoprecipitated with agarose-conjugated polyclonal anti-Raf-1 antibody. Immune complexes were resolved by 7.5% SDS-PAGE and immunoblotted with polyclonal anti-Raf-1 antibody. (B) Data from three independent experiments were quantified and expressed relative to the level of Raf-1 in untreated cells.
On day two, cells were rinsed with fresh 30% FBS, followed by a second course of the treatment schedule as on day one for an additional 24 hours. This procedure yielded a minimal exposure of cells of LE-5132 (SEQ ID NO:4) 12 hours). […] The lysates were clarified by centrifugation at 16,000 g for 20 minutes, and the protein concentrations were determined (Pierce, Rockford, Ill.). […] The Raf-1 protein level was quantified using the computer software program Image-Quant (Molecular Dynamics, Sunnyvale, Calif.).

[3] = system: SQ-20B tumor xenografts; experiment: SQ-20B tumor xenograft growth (LE-5132, 5132, ionizing radiation); format: in vivo, Balb/c nu/nu mice; details: 10 mg/kg i.v. daily 7 days then three doses on alternate days; day 35
Protocol: FIG. 13: Effect of LE-5132 (SEQ ID NO:4) on […] tumor growth. SQ-20B rumor cells (2×10^6) were injected a.c. into the left flank region of each male Balb/c nu/nu mouse, 10–12 weeks old. Tumor xenografts were grown to a mean tumor volume of 94±6.4 mm^3, and the animals were randomized into two treatment groups. Day 0 represents the first day of treatment. […] The data shown are mean±SE of 5–7 animals per group.
FIG. 15: Effect of LE-5132 (SEQ ID NO:4) and ionizing radiation on SQ-20B rumor growth. (A) SQ-20B tumor xenografts were grown in male Balb/c nu/nu mice as described. Animals bearing a mean tumor volume of 72.0±4.3 mm^3 were randomized into five treatment groups. Day 0 represents the first day of treatment. […]
Logarithmically growing SQ-20B cells were injected s.c. (2×10^o cells) in the left flank region in male Balb/c nu/nu mice under mild anesthesia. […] Volumes for tumors were determined from caliper measurements of the three major axes (a, b, c) and calculated using abc/2, an approximation for the volume of an ellipse (πabc/6).
For each experiment, tumor-bearing mice were randomly divided into different treatment group, with 5–7 animals per group. […] Using TLD dosimetry, the average dose rate to the center of the tumor and to the mouse body were determined beforehand using the experimental irradiation conditions and a custom-made, tissue-equivalent, mouse phantom. […]

[4] = mouse, in vivo, iv, 30 mg/kg
Protocol: FIG. 11: The plasma concentration-time profile of LE-5132 (SEQ ID NO:4) and 5132 (SEQ ID NO:4); 30 mg/kg LE-5132 (SEQ ID NO:4) or 5132 (SEQ ID NO:4) was administered i.v. in Balb/c nu/nu mice. Blood samples were collected from the retroorbital sinus at indicated times after injection, and ODN in plasma samples was extracted and analyzed by denaturing gel electrophoresis as described. […] Quantification data were calculated based on comparison with known concentrations of the standard samples and then normalized against sample dilution factors used for loading.
Male Balb/c nu/nu mice (National Cancer Institute, Frederick, Md.) were maintained in the Division of Comparative Medicine, Georgetown University, according to accredited procedures, and fed purina chow and water ad libitum. Mice were injected i.v. via the tail vein with 30 mg/kg of LE-5132 (SEQ ID NO:4) or 5132 (SEQ ID NO:4) formulated in PBS. At 5, 15, and 30 minutes and 1, 2, 4, 8, 24, and 48 hours after injection, animals were bled, under anesthesia, from the retroorbital sinus into heparinized tubes and killed by cervical dislocation. The blood was centrifuged immediately at 300 g for 10 minutes at 4° C. to separate the plasma. The liver, spleen, kidney, heart, and lungs were rapidly excised and rinsed in ice-cold normal saline. The plasma and organs were stored at −70° C. until further analysis.
Antisense raf ODN concentrations in plasma and tissue samples were detected as we described earlier (Gokhale et al., 1997). Briefly, the ODN was isolated from plasma samples using the phenol-chloroform extraction method and from tissues using a DNA extraction kit (Stratagene, La Jolla, Calif.). The raf ODN concentration standards were prepared by adding known amounts of 5132 (SEQ ID NO:4) in blank plasma or blank tissue samples, followed by extraction as described earlier. The extracts were loaded onto 20% pblyacrylamide/8 M urea gels and electrophoresed in TBE buffer. The gels were electroblotted onto nylon membranes in 0.5×TBE buffer at 20 V for one hour, and the blots were probed with [^32P]-labeled sense raf ODN probe in Quickhyb buffer (Stratagene) at 30° C. overnight. A 10–50-fold excess of the probe was used to ensure saturation of all bands. The autoradiographs were scanned using a computer program (Image-Quant software), and the amounts of antisense raf ODN in the samples were calculated by comparison with standards.

Substance	effect on Raf-1 expression in tumor tissue [1]	effect on Raf-1 expression in cell culture [2]	mean tumor volume compared with day 0 (100%) [3]	AUCarea [4] [µg·h/mL]	CL (total body clearance) [4] [L/h/kg]	Cmax (peak plasma concentration) [4] [µg/mL]	Vdarea (volume of distribution) [4] [L/kg]	initial distribution half-life [4] [min]	t1/2β (elimination half-life) [4] [h]	terminal half-life (t1/2β) [4] [h]
5′-GCAT-CAATGGAGCAC-3′ (sense GCATCAATGGAGCAC; listed as DNA, chemistry not fully specified) [ATG-S raf ODN]	no effect	–	–	–	–	–	–	–	–	–
5′-TCC-CGC-CTG-TGA-CAT-GCA-TT-3′ [compound 5132]	–	ineffective	159.6%±10.0%	6.20	4.82	13.57	29.96	21.6	4.30	4.3
